Oligonucleotides are written 5' to 3', each unit as a sugar letter and its base; * is a phosphorothioate linkage, no mark a phosphodiester; rarer units and linkages stand in square brackets, end groups in braces. Plain capitals give the bases only. k = constrained ethyl (cEt); [5mC] = 5-methylcytosine; d = 2'-deoxy (DNA)
Tests used:
AR mRNA [1] = assay: Antisense inhibition of human AR in HuVEC cells, single concentration (electroporation, qRT-PCR RTS3559); format: cell-based
Summary of the method: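 HuVEC cells electroporated with antisense oligonucleotides at a single concentration. AR mRNA quantified by qRT-PCR using human primer-probe set RTS3559 and normalised to total RNA content by RIBOGREEN.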

AR mRNA [2] = assay: Dose-dependent antisense inhibition of human AR in HuVEC cells (electroporation, qRT-PCR RTS3559, IC50); format: cell-based; settings: HuVEC, electroporation, approximately 16 hours
Summary of the method: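 HuVEC cells dosed with antisense oligonucleotides by electroporation and treated approximately 16 hours. AR mRNA quantified by real-time qPCR with primer probe set RTS3559 and normalised to total RNA by RIBOGREEN; IC50 from dose-response.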

[3] = Table 19, 500 nM oligonucleotide, electroporation, approximately 24 hours, relative to untreated control

Substance	% inhibition (AR mRNA [1]; 500 nM ASO, ~24 h, Table 18) [%]	percent inhibition of AR, 46.9 nM (AR mRNA [2]; Table 30) [%]	percent inhibition of AR, 187.5 nM (AR mRNA [2]; Table 30) [%]	percent inhibition of AR, 750.0 nM (AR mRNA [2]; Table 30) [%]	percent inhibition of AR, 3000.0 nM (AR mRNA [2]; Table 30) [%]	IC50 (AR mRNA [2]; Table 30) [µM]	percent inhibition of AR, 46.9 nM (AR mRNA [2]; Table 31) [%]	percent inhibition of AR, 187.5 nM (AR mRNA [2]; Table 31) [%]	percent inhibition of AR, 750.0 nM (AR mRNA [2]; Table 31) [%]	percent inhibition of AR, 3000.0 nM (AR mRNA [2]; Table 31) [%]	IC50 (AR mRNA [2]; Table 31) [µM]	% inhibition (AR mRNA [1]; [3]) [%]	percent inhibition of AR, 46.9 nM (AR mRNA [2]; Table 32) [%]	percent inhibition of AR, 187.5 nM (AR mRNA [2]; Table 32) [%]	percent inhibition of AR, 750.0 nM (AR mRNA [2]; Table 32) [%]	percent inhibition of AR, 3000.0 nM (AR mRNA [2]; Table 32) [%]	IC50 (AR mRNA [2]; Table 32) [µM]
583692 (antisense kG*kT*kG*dA*dT*dG*dA*dT*dG*d[5mC]*dG*dG*dT*kA*kG*kT) [compound 583692]	41	8	47	61	71	0.44	–	–	–	–	–	–	–	–	–	–	–
583693 (antisense k[5mC]*kT*kG*dT*dG*dA*dT*dG*dA*dT*dG*d[5mC]*dG*kG*kT*kA) [compound 583693]	36	–	–	–	–	–	12	39	64	80	0.38	–	–	–	–	–	–
583700 (antisense kG*kA*kA*dG*dA*dG*dT*dT*d[5mC]*dA*dA*d[5mC]*dA*kG*kG*k[5mC]) [compound 583700]	36	–	–	–	–	–	14	34	57	71	0.55	–	–	–	–	–	–
583709 (antisense kG*k[5mC]*kT*dT*dG*dG*d[5mC]*dT*dG*dA*dA*dT*d[5mC]*kT*kT*k[5mC]) [compound 583709]	39	8	50	70	84	0.29	–	–	–	–	–	–	–	–	–	–	–
583712 (antisense k[5mC]*k[5mC]*kT*dT*dG*dA*dG*d[5mC]*dT*dT*dG*dG*d[5mC]*kT*kG*kA) [compound 583712]	37	15	47	72	78	0.29	–	–	–	–	–	–	–	–	–	–	–
583713 (antisense kA*kT*k[5mC]*d[5mC]*dT*dT*dG*dA*dG*d[5mC]*dT*dT*dG*kG*k[5mC]*kT) [compound 583713]	36	–	–	–	–	–	29	51	67	74	0.22	–	–	–	–	–	–
583714 (antisense kT*k[5mC]*k[5mC]*dA*dT*d[5mC]*d[5mC]*dT*dT*dG*dA*dG*d[5mC]*kT*kT*kG) [compound 583714]	36	–	–	–	–	–	22	34	59	79	0.4	–	–	–	–	–	–
583719 (antisense kG*kT*kA*dG*dG*dT*d[5mC]*dT*dT*dG*dG*dA*d[5mC]*kG*kG*k[5mC]) [compound 583719]	36	–	–	–	–	–	22	46	65	72	0.32	–	–	–	–	–	–
583727 (antisense kG*kA*kT*dT*d[5mC]*dT*dG*dG*dA*dA*dA*dG*d[5mC]*kT*k[5mC]*k[5mC]) [compound 583727]	40	18	49	70	76	0.29	–	–	–	–	–	–	–	–	–	–	–
583728 (antisense kG*k[5mC]*kT*d[5mC]*dT*dG*dG*dA*dA*d[5mC]*dA*dG*dA*kT*kT*k[5mC]) [compound 583728]	45	9	48	67	70	0.4	–	–	–	–	–	–	–	–	–	–	–
583731 (antisense k[5mC]*kG*k[5mC]*dG*d[5mC]*dA*d[5mC]*dG*d[5mC]*dT*d[5mC]*dT*dG*kG*kA*kA) [compound 583731]	34	–	–	–	–	–	18	24	47	58	1.31	–	–	–	–	–	–
583734 (antisense kT*k[5mC]*kA*d[5mC]*dT*dT*d[5mC]*dG*d[5mC]*dG*d[5mC]*dA*d[5mC]*kG*k[5mC]*kT) [compound 583734]	46	29	60	74	75	0.12	–	–	–	–	–	–	–	–	–	–	–
583736 (antisense kT*kG*kG*dA*dT*d[5mC]*dA*d[5mC]*dT*dT*d[5mC]*dG*d[5mC]*kG*k[5mC]*kA) [compound 583736]	47	21	38	60	63	0.51	–	–	–	–	–	–	–	–	–	–	–
583738 (antisense kG*kT*kT*d[5mC]*dT*dG*dG*dA*dT*d[5mC]*dA*d[5mC]*dT*kT*k[5mC]*kG) [compound 583738]	36	16	40	56	71	0.51	–	–	–	–	–	–	–	–	–	–	–
583745 (antisense k[5mC]*kG*k[5mC]*dT*d[5mC]*dG*d[5mC]*dG*dG*d[5mC]*d[5mC]*dT*d[5mC]*kT*kG*kG) [compound 583745]	40	19	51	68	77	0.27	–	–	–	–	–	–	–	–	–	–	–
583746 (antisense kT*kG*k[5mC]*dG*d[5mC]*dT*d[5mC]*dG*d[5mC]*dG*dG*d[5mC]*d[5mC]*kT*k[5mC]*kT) [compound 583746]	32	–	–	–	–	–	24	44	65	67	0.35	–	–	–	–	–	–
583747 (antisense kG*k[5mC]*kT*dG*d[5mC]*dG*d[5mC]*dT*d[5mC]*dG*d[5mC]*dG*dG*k[5mC]*k[5mC]*kT) [compound 583747]	35	–	–	–	–	–	13	38	50	69	0.64	–	–	–	–	–	–
583749 (antisense kA*kG*kG*dT*dG*d[5mC]*dT*dG*d[5mC]*dG*d[5mC]*dT*d[5mC]*kG*k[5mC]*kG) [compound 583749]	–	–	–	–	–	–	–	–	–	–	–	36	34	40	75	87	0.17
583759 (antisense kG*k[5mC]*kT*dG*dT*dT*d[5mC]*d[5mC]*dT*d[5mC]*dA*dT*d[5mC]*k[5mC]*kA*kG) [compound 583759]	–	–	–	–	–	–	–	–	–	–	–	38	5	28	61	67	0.63
583787 (antisense kG*kG*kT*dG*d[5mC]*dT*dG*dG*d[5mC]*d[5mC]*dT*d[5mC]*dG*k[5mC]*kT*k[5mC]) [compound 583787]	–	–	–	–	–	–	–	–	–	–	–	37	15	31	66	74	0.43
583789 (antisense kT*kG*k[5mC]*dA*dT*dG*dG*dT*dG*d[5mC]*dT*dG*dG*k[5mC]*k[5mC]*kT) [compound 583789]	–	–	–	–	–	–	30	49	71	85	0.19	39	–	–	–	–	–
583790 (antisense kG*kT*kT*dG*d[5mC]*dA*dT*dG*dG*dT*dG*d[5mC]*dT*kG*kG*k[5mC]) [compound 583790]	–	–	–	–	–	–	17	42	65	81	0.32	39	–	–	–	–	–
583795 (antisense kT*kG*k[5mC]*dT*dG*dT*dT*dG*d[5mC]*dT*dG*dA*dA*kG*kG*kA) [compound 583795]	–	–	–	–	–	–	37	61	83	90	0.09	63	–	–	–	–	–
583797 (antisense kT*k[5mC]*kG*dG*dA*dT*dA*d[5mC]*dT*dG*d[5mC]*dT*dT*k[5mC]*k[5mC]*kT) [compound 583797]	–	–	–	–	–	–	–	–	–	–	–	35	21	50	74	82	0.22

Source: patent USRE48461E1, “Modulation of androgen receptor expression” (Ionis Pharmaceuticals, Inc., priority 2012, dated 2021)
